Target: T1, MabA-C60V/S144L (Mycobacterium tuberculosis, UniProt P9WGT3, C60V/S144L)
T1 construct: made in house; host or cells: Escherichia coli
Type: binding
Conditions: read-out: KD for the cofactor

## NC(=O)C1=CN([C@@H]2O[C@H](COP(=O)(O)OP(=O)(O)OC[C@H]3O[C@@H](n4cnc5c(N)ncnc54)[C@H](OP(=O)(O)O)[C@@H]3O)[C@@H](O)[C@H]2O)C=CC1 [NADPH]
  Kd: 11.2 µM

From patent publication US20100113291A1 (CENTRE NATIONAL DE LA RECHERCHE SCIENTIFIQUE, priority 2006, published 2010)
